Patent publication US20220289724A1, “KIF18A INHIBITORS” (AMGEN INC., priority 2019, published 2022)

Molecular target: T1, Recombinant human KIF18A (1-467 His-tagged) protein (Homo sapiens, UniProt Q8NI77)
T1 construct: Recombinant human KIF18A (1-467 His-tagged) protein; His; made in house
Test: KIF18A Enzyme Assay: microtubule-stimulated ATPase activity assay (ADP-Glo)
Format: biochemical
Settings: KIF18A protein 30 nM, 30 μg/mL pig microtubules, ATP at Km 75 μM, ADP-Glo luminescence, RT
Excerpt: KIF18A Enzyme Assay: Microtubule-stimulated ATPase activity assay is used to measure KIF18A enzyme activity after treatment with compound. Compounds were 2-fold serially diluted in DMSO (Sigma Inc) over 22-point concentration range. Recombinant human KIF18A (1-467 His-tagged) protein was expressed using a baculovirus system and purified by affinity chromatography by Amgen Inc. Concentrations of KIF18A protein, microtubules (MT), and ATP in the reaction were optimized for standardized homogenous enzyme assay using ADP-Glorm Kinase/ATPase Assay Kit (Promega Inc). The assay measures ADP formed from the ATPase reaction. […] Concentration-response curve-fitting and IC50 determination was performed using Genedata Screener Software (Standard 15.0.1, Genedata Inc) with a four-parameter logistic regression fit model.
Table A provides data for compounds exemplified in the present application and priority document thereof, as representative compounds of the present invention, as follows: chemical name (as named by either ACD software or ChemDraw (Professional 15.0)) and biological data (IC50 in μM). Ex. […] refers to Example No.

T1 sequence (Q8NI77 1-467): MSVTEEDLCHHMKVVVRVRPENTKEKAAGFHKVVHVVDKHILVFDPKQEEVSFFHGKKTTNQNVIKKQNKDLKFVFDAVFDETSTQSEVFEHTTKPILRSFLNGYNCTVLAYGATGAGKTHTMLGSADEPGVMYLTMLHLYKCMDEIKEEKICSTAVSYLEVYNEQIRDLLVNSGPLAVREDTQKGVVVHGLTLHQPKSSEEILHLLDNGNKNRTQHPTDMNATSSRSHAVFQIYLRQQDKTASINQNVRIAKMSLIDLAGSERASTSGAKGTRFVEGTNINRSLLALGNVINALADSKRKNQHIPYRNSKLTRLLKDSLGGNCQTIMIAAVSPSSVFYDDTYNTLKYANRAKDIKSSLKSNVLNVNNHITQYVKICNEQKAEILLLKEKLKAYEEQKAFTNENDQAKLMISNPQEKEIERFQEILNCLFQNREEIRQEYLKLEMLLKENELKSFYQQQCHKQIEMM
T1 sequence (P02550 whole entry partner): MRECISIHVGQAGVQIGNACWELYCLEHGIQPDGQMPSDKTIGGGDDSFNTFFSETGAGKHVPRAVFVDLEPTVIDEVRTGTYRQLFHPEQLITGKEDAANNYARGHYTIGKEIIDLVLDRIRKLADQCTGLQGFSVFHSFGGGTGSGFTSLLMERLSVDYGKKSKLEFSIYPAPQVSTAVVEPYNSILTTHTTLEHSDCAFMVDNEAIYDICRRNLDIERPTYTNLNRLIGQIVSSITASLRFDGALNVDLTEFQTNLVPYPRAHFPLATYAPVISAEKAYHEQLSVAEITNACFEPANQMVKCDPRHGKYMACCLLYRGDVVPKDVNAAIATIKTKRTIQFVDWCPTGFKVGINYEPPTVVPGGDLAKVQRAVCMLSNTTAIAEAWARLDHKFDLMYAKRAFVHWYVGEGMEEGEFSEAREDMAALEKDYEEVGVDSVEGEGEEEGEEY
T1 sequence (P02554 whole entry partner): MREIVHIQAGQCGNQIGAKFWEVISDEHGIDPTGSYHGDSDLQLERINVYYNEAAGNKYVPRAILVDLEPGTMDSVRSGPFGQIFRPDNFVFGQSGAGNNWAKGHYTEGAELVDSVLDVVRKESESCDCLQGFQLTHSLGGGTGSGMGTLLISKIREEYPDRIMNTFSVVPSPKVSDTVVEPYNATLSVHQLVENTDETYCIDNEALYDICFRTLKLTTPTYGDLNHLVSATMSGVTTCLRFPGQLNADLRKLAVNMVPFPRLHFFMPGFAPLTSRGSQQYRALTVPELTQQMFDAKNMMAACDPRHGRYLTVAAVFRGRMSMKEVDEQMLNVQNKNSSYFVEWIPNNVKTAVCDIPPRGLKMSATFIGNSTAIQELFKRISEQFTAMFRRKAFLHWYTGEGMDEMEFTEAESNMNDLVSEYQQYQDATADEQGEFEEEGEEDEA

Row | IC50 | Compound
1 | 0.323 µM | CC(C)(C)[S@](=N)(=O)c1cccc(NC(=O)c2ccc(NS(=O)(=O)CCO)cc2N2CCC3(CC2)CC3)c1 [Example 114-2, (S)-4-((2-hydroxyethyl)sulfonamido)-N-(3-(2-methylpropan-2-ylsulfonimidoyl)phenyl)-2-(6-azaspiro[2.5]octan-6-yl)benzamide]
2 | 0.026 µM | O=C(Nc1ccc(NS(=O)(=O)CCO)cc1N1CCC2(CC1)CC2)c1cccc(N2CCCCC2)c1 [Example 115, N-(4-((2-Hydroxyethyl)sulfonamido)-2-(6-azaspiro[2.5]octan-6-yl)phenyl)-3-(piperidin-1-yl)benzamide]
